Test results taken from US11566028B2, “Bicyclic heterocycles as FGFR inhibitors” (Incyte Corporation, priority 2019, dated 2023).
Where two headings read alike, the source gives them in different places.

Assays:
Format in all cases: biochemical
[1] = target: FGFR2 (Homo sapiens (Human), UniProt P21802); assay: FGFR Enzymatic Assay (FRET peptide phosphorylation), FGFR2
[2] = target: wild-type un-phosphorylated FGFR3 protein (Homo sapiens (Human), UniProt P22607); assay: FGFR Enzymatic Assay (FRET peptide phosphorylation), FGFR3; conditions: pre-incubated for 4 hours
[3] = target: FGFR1 (Homo sapiens (Human), UniProt P11362); assay: FGFR Enzymatic Assay (FRET peptide phosphorylation), FGFR1; conditions: pre-incubated for 4 hours
FGFR1, sequence (P11362 22-822): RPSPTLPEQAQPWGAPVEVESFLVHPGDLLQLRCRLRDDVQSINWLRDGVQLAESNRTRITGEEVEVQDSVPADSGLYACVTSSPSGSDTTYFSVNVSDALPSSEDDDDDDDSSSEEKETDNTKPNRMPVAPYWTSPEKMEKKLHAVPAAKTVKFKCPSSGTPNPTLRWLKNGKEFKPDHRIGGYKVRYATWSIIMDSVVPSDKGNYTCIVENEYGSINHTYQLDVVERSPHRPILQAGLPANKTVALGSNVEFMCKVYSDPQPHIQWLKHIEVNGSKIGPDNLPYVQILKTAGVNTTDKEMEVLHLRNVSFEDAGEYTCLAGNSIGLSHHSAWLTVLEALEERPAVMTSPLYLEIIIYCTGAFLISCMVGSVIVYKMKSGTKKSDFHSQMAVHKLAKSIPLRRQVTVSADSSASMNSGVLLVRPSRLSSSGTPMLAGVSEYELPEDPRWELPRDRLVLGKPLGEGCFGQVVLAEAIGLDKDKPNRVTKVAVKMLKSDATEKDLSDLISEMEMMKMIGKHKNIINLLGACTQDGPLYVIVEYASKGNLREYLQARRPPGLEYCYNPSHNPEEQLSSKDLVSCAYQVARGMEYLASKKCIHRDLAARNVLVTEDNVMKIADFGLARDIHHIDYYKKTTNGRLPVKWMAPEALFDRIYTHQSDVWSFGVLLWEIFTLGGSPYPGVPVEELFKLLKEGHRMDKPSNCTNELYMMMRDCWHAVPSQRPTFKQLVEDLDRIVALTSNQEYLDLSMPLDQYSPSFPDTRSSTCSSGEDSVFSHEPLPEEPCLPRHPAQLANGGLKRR

FGFR2, sequence (P21802 22-821): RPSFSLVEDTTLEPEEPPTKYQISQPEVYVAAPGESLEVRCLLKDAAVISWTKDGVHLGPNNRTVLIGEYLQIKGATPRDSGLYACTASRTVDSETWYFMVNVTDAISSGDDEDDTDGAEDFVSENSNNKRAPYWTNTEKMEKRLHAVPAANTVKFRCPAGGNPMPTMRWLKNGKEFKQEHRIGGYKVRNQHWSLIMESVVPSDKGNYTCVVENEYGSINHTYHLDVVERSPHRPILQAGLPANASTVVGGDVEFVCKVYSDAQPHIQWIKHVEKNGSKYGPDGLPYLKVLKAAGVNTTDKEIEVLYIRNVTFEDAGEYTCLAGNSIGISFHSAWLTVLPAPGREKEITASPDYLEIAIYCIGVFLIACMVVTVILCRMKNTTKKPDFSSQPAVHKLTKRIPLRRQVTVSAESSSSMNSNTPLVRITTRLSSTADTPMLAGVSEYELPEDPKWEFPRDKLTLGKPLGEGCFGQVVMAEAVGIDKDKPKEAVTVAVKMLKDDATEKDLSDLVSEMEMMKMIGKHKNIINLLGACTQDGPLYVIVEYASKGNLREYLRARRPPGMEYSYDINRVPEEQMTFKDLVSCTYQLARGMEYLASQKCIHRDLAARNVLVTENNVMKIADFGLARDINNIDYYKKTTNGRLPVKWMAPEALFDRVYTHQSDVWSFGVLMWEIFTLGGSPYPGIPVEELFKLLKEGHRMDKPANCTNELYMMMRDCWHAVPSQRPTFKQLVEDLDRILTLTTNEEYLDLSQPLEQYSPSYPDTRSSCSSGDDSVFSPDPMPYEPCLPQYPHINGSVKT
wild-type un-phosphorylated FGFR3 protein, sequence (P22607 23-806): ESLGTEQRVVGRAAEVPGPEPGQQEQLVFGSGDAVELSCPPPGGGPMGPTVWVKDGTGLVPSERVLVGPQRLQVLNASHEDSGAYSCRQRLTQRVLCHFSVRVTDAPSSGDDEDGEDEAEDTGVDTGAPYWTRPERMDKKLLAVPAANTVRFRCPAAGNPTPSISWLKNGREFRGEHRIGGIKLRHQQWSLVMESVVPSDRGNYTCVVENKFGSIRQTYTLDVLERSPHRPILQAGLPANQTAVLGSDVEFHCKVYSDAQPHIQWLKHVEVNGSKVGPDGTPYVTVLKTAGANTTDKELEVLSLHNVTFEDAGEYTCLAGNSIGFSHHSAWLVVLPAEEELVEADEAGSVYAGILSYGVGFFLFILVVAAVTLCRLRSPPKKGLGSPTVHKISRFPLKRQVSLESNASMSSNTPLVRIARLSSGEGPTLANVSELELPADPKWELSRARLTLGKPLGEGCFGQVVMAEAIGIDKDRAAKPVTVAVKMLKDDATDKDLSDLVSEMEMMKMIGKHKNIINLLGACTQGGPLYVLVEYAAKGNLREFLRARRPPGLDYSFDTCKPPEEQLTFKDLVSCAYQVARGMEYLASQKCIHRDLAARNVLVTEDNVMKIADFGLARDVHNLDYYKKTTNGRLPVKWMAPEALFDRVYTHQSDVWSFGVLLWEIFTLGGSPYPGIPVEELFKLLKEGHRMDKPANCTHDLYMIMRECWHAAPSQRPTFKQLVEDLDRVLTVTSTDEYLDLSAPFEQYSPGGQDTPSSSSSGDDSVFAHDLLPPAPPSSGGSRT

Structure (SMILES) | IC50 [1] | IC50 [2] | IC50 [3] | IC50 ([1]; pre-incubated for 4 hours)
CNC(=O)c1cc(F)c(F)c(-c2cnn3cc(-c4ccc(C(C)(C)O)nc4)c(N[C@H]4CCOC4)nc23)c1 [Example 57, (S)-3,4-Difluoro-5-(6-(6-(2-hydroxypropan-2-yl)pyridin-3-y1)-5-((tetrahydrofuran-3-yl)amino)pyrazolo[1,5-a]pyrimidin-3-y1)-N-methylbenzamide] | < 10 nM | < 10 nM | 30 to 200 nM | –
CNC(=O)c1cc(C#N)cc(-c2cnn3cc(-c4ccncc4)c(O[C@H]4CCOC4)nc23)c1 [Example 30, (S)-3-Cyano-N-methyl-5-(6-(pyridin-4-yl)-5-((tetrahydrofuran-3-yl)oxy)pyrazolo[1,5-a]pyrimidin-3-yl)benzamide] | – | < 10 nM | 30 to 200 nM | 10 to 30 nM
CNC(=O)c1cc(C)c(F)c(-c2cnn3cc(-c4cnc(N5CCN(C)CC5)o4)c(N[C@H]4CCOC4)nc23)c1 [Example 70, (S)-4-Fluoro-N,3-dimethyl-5-(6-(2-(4-methylpiperazin-1-yl)oxazol-5-yl)-5-((tetrahydrofuran-3-yl)amino)pyrazolo[1,5-a]pyrimidin-3-yl)benzamide] | – | < 10 nM | 30 to 200 nM | < 10 nM
CNC(=O)c1cncc(-c2cnn3cc(-c4ccc(N5CCN(C)CC5)cc4)c(O[C@H]4CCOC4)nc23)c1 [Example 18, (S)—N-Methyl-5-(6-(4-(4-methylpiperazin-1-yl)phenyl)-5-((tetrahydrofuran-3-yl)oxy)pyrazolo[1,5-a]pyrimidin-3-yl)nicotinamide] | – | < 10 nM | 30 to 200 nM | < 10 nM
CNC(=O)c1cc(C)c(F)c(-c2cnn3cc(-c4cnn(CCO)c4)c(N[C@H]4CCOC4)nc23)c1 [Example 36, (S)-4-Fluoro-3-(6-(1-(2-hydroxyethyl)-1H-pyrazol-4-yl)-5-((tetrahydrofuran-3-yl)amino)pyrazolo[1,5-a]pyrimidin-3-yl)-N,5-dimethylbenzamide] | – | < 10 nM | 30 to 200 nM | < 10 nM
CNC(=O)c1cc(-c2cnn3cc(-c4cccnc4)c(O[C@H]4CCOC4)nc23)c(F)c(C(F)F)c1 [Example 23, (S)-3-(Difluoromethyl)-4-fluoro-N-methyl-5-(6-(pyridin-3-yl)-5-((tetrahydrofuran-3-yl)oxy)pyrazolo[1,5-a]pyrimidin-3-yl)benzamide] | – | < 10 nM | 30 to 200 nM | < 10 nM
CCn1cc(-c2cn3ncc(-c4cc(C(=O)NC)cc(C(F)F)c4F)c3nc2N[C@H]2CCOC2)cn1 [Example 48, (S)-3-(Difluoromethyl)-5-(6-(1-ethyl-1H-pyrazol-4-yl)-5-((tetrahydrofuran-3-yl)amino)pyrazolo[1,5-a]pyrimidin-3-yl)-4-fluoro-N-methylbenzamide] | – | < 10 nM | 10 to 30 nM | < 10 nM
CNC(=O)c1cc(F)c(F)c(-c2cnn3cc(-c4cnn(Cc5cccnc5)c4)c(N[C@H]4CCOC4)nc23)c1 [Example 52, (S)-3,4-Difluoro-N-methyl-5-(6-(1-(pyridin-3-ylmethyl)-1H-pyrazol-4-yl)-5-((tetrahydrofuran-3-yl)amino)pyrazolo[1,5-a]pyrimidin-3-yl)benzamide] | – | < 10 nM | < 10 nM | < 10 nM
CNC(=O)c1cc(C)c(F)c(-c2cnn3cc(-c4cnn(C)c4)c(N[C@H]4CCOC4)nc23)c1 [Example 16, (S)-4-Fluoro-N,3-dimethyl-5-(6-(1-methyl-1H-pyrazol-4-yl)-5-((tetrahydrofuran-3-yl)amino)pyrazolo[1,5-a]pyrimidin-3-yl)benzamide] | – | < 10 nM | 30 to 200 nM | < 10 nM
CNC(=O)c1cc(C)c(F)c(-c2cnn3cc(-c4cnn(C5CCS(=O)(=O)C5)c4)c(N[C@H]4CCOC4)nc23)c1 (stereo partly drawn) [Example 38, 3-(6-(1-(1,1-Dioxidotetrahydrothiophen-3-y1)-1H-pyrazol-4-y1)-5-(((S)-tetrahydrofuran-3-yl)amino)pyrazolo[1,5-a]pyrimidin-3-y1)-4-fluoro-N,5-dimethylbenzamide] | < 10 nM | < 10 nM | 30 to 200 nM | –
CNC(=O)c1cc(F)c(F)c(-c2cnn3cc(-c4cnn(C5CCN(C)CC5)c4)c(O[C@H]4CCOC4)nc23)c1 [Example 11, (S)-3,4-Difluoro-N-methyl-5-(6-(1-(1-methylpiperidin-4-yl)-1H-pyrazol-4-yl)-5-((tetrahydrofuran-3-yl)oxy)pyrazolo[1,5-a]pyrimidin-3-yl)benzamide] | – | < 10 nM | < 10 nM | < 10 nM
CNC(=O)c1cc(F)c(F)c(-c2cnn3cc(-c4cnn(CC5CCOCC5)c4)c(N[C@H]4CCOC4)nc23)c1 [Example 54, (S)-3,4-Difluoro-N-methyl-5-(6-(1-((tetrahydro-2H-pyran-4-yl)methyl)-1H-pyrazol-4-y1)-5-((tetrahydrofuran-3-yl)amino)pyrazolo[1,5-a]pyrimidin-3-yl)benzamide] | < 10 nM | < 10 nM | < 10 nM | –
CNC(=O)c1cc(C)c(F)c(-c2cnn3cc(-c4cnc(C5(F)CCN(C)CC5)o4)c(N[C@H]4CCOC4)nc23)c1 [Example 69, (S)-4-Fluoro-3-(6-(2-(4-fluoro-1-methylpiperidin-4-yl)oxazol-5-yl)-5-((tetrahydrofuran-3-yl)amino)pyrazolo[1,5-a]pyrimidin-3-yl)-N,5-dimethylbenzamide] | – | < 10 nM | 30 to 200 nM | < 10 nM
CNC(=O)c1cc(C)c(F)c(-c2cnn3cc(-c4cnn(CCC#N)c4)c(N[C@H]4CCOC4)nc23)c1 [Example 37, (S)-3-(6-(1-(2-Cyanoethyl)-1H-pyrazol-4-y1)-5-((tetrahydrofuran-3-yl)amino)pyrazolo[1,5-a]pyrimidin-3-y1)-4-fluoro-N,5-dimethylbenzamide] | < 10 nM | < 10 nM | 10 to 30 nM | –
CNC(=O)c1cc(F)c(F)c(-c2cnn3cc(-c4cnn(CCN5CCOCC5)c4)c(O[C@H]4CCOC4)nc23)c1 [Example 14, (S)-3,4-Difluoro-N-methy1-5-(6-(1-(2-morpholinoethyl)-1H-pyrazol-4-y1)-5-((tetrahydrofuran-3-yl)oxy)pyrazolo[1,5-a]pyrimidin-3-yl)benzamide] | < 10 nM | < 10 nM | < 10 nM | –
CNC(=O)c1cc(F)c(F)c(-c2cnn3cc(-c4ccc(C)nc4)c(O[C@H]4CCOC4)nc23)c1 [Example 15, (S)-3,4-Difluoro-N-methyl-5-(6-(6-methylpyridin-3-y1)-5-((tetrahydrofuran-3-yl)oxy)pyrazolo[1,5-a]pyrimidin-3-yl)benzamide] | < 10 nM | < 10 nM | 30 to 200 nM | –
CNC(=O)c1cc(F)c(F)c(-c2cnn3cc(-c4ccc(N5CCN(C)CC5)nc4)c(O[C@H]4CCOC4)nc23)c1 [Example 13, (S)-3,4-Difluoro-N-methy1-5-(6-(6-(4-methylpiperazin-1-yl)pyridin-3-y1)-5-((tetrahydrofuran-3-yl)oxy)pyrazolo[1,5-a]pyrimidin-3-yl)benzamide] | – | < 10 nM | 10 to 30 nM | < 10 nM
CNC(=O)c1cc(C)c(F)c(-c2cnn3cc(-c4cnn(C)c4)c(O[C@H]4CCOC4)nc23)c1 [Example 5, (S)-4-Fluoro-N,3-dimethyl-5-(6-(1-methyl-1H-pyrazol-4-yl)-5-((tetrahydrofuran-3-yl)oxy)pyrazolo[1,5-a]pyrimidin-3-yl)benzamide] | – | < 10 nM | < 10 nM | < 10 nM
CNC(=O)c1cc(C#N)cc(-c2cnn3cc(-c4cnn(C)c4)c(O[C@H]4CCOC4)nc23)c1 [Example 6, (S)-3-Cyano-N-methyl-5-(6-(1-methyl-1H-pyrazol-4-yl)-5-((tetrahydrofuran-3-yl)oxy)pyrazolo[1,5-a]pyrimidin-3-yl)benzamide] | – | < 10 nM | 10 to 30 nM | < 10 nM
CNC(=O)c1cncc(-c2cnn3cc(-c4ccc(N5CCOCC5)nc4)c(O[C@H]4CCOC4)nc23)c1 [Example 20, (S)-N-Methyl-5-(6-(6-morpholinopyridin-3-yl)-5-((tetrahydrofuran-3-yl)oxy)pyrazolo[1,5-a]pyrimidin-3-yl)nicotinamide] | – | < 10 nM | 30 to 200 nM | < 10 nM
[2H]C([2H])([2H])NC(=O)c1cc(C)c(F)c(-c2cnn3cc(-c4cnc(C5CCN(C(C)C)CC5)o4)c(N[C@H]4CCOC4)nc23)c1 [Example 68, (S)-4-Fluoro-3-(6-(2-(1-isopropylpiperidin-4-yl)oxazol-5-yl)-5-((tetrahydrofuran-3-yl)amino)pyrazolo[1,5-a]pyrimidin-3-yl)-5-methyl-N-(methyl-d3)benzamide] | – | < 10 nM | 30 to 200 nM | < 10 nM
[2H]C([2H])([2H])NC(=O)c1cc(C)c(F)c(-c2cnn3cc(-c4cnn(C5CCN(C(C)C)CC5)n4)c(N[C@H]4CCOC4)nc23)c1 [Example 67, (S)-4-Fluoro-3-(6-(2-(1-isopropylpiperidin-4-yl)-2H-1,2,3-triazol-4-yl)-5-((tetrahydrofuran-3-yl)amino)pyrazolo[1,5-a]pyrimidin-3-yl)-5-methyl-N-(methyl-d3)benzamide] | – | < 10 nM | < 10 nM | < 10 nM
CNC(=O)c1cc(C)c(F)c(-c2cnn3cc(-c4cnn(CC(=O)N(C)C)c4)c(N[C@H]4CCOC4)nc23)c1 [Example 39, (S)-3-(6-(1-(2-(Dimethylamino)-2-oxoethyl)-1H-pyrazol-4-y1)-5-((tetrahydrofuran-3-yl)amino)pyrazolo[1,5-a]pyrimidin-3-y1)-4-fluoro-N,5-dimethylbenzamide] | < 10 nM | < 10 nM | 10 to 30 nM | –
CNC(=O)c1cc(O)c(F)c(-c2cnn3cc(-c4cnn(C)c4)c(O[C@H]4CCOC4)nc23)c1 [Example 31, (S)-4-Fluoro-3-hydroxy-N-methyl-5-(6-(1-methyl-1H-pyrazol-4-yl)-5-((tetrahydrofuran-3-yl)oxy)pyrazolo[1,5-a]pyrimidin-3-yl)benzamide] | – | < 10 nM | 10 to 30 nM | < 10 nM
